Key:
Type in all cases: cell-based
OVCAR-4 = assay: NCI 60 cell line panel (SRB), OVCAR-4; conditions: Homo sapiens; OVCAR-4, Ovarian Cancer; single dose of 10 μM; read-out: Cell Growth Percent
NCI/ADR-RES = assay: NCI 60 cell line panel (SRB), NCI/ADR-RES; conditions: Homo sapiens, Ovarian Cancer, single dose of 10 μM, read-out: Cell Growth Percent
TK-10 = assay: NCI 60 cell line panel (SRB), TK-10; conditions: Homo sapiens; TK-10, Renal Cancer; single dose of 10 μM; read-out: Cell Growth Percent
OVCAR-8 = assay: NCI 60 cell line panel (SRB), OVCAR-8; conditions: Homo sapiens; OVCAR-8, Ovarian Cancer; single dose of 10 μM; read-out: Cell Growth Percent
MALME-3M = assay: NCI 60 cell line panel (SRB), MALME-3M; conditions: Homo sapiens, Melanoma, single dose of 10 μM, read-out: Cell Growth Percent
RPMI-8226 = assay: NCI 60 cell line panel (SRB), RPMI-8226; conditions: Homo sapiens; RPMI-8226, Leukemia; single dose of 10 μM; read-out: Cell Growth Percent
LOX IMVI = assay: NCI 60 cell line panel (SRB), LOX IMVI; conditions: Homo sapiens, Melanoma, single dose of 10 μM, read-out: Cell Growth Percent
HT29 = assay: NCI 60 cell line panel (SRB), HT29; conditions: Homo sapiens, HT-29; HT29, Colon Cancer; single dose of 10 μM; read-out: Cell Growth Percent
T-47D = assay: NCI 60 cell line panel (SRB), T-47D; conditions: Homo sapiens, T47D, Breast Cancer, single dose of 10 μM, read-out: Cell Growth Percent
M14 = assay: NCI 60 cell line panel (SRB), M14; conditions: Homo sapiens; M14, Melanoma; single dose of 10 μM; read-out: Cell Growth Percent
SF-295 = assay: NCI 60 cell line panel (SRB), SF-295; conditions: Homo sapiens; SF-295, CNS Cancer; single dose of 10 μM; read-out: Cell Growth Percent
MDA-MB-468 = assay: NCI 60 cell line panel (SRB), MDA-MB-468; conditions: Homo sapiens; MDA-MB-468, Breast Cancer; single dose of 10 μM; read-out: Cell Growth Percent
BT-549 = assay: NCI 60 cell line panel (SRB), BT-549; conditions: Homo sapiens; BT-549, Breast Cancer; single dose of 10 μM; read-out: Cell Growth Percent
786-0 = assay: NCI 60 cell line panel (SRB), 786-0; conditions: Homo sapiens; 786-0, Renal Cancer; single dose of 10 μM; read-out: Cell Growth Percent
SK-MEL-28 = assay: NCI 60 cell line panel (SRB), SK-MEL-28; conditions: Homo sapiens; SK-MEL-28, Melanoma; single dose of 10 μM; read-out: Cell Growth Percent
ACHN = assay: NCI 60 cell line panel (SRB), ACHN; conditions: Homo sapiens, Renal Cancer, single dose of 10 μM, read-out: Cell Growth Percent
SN12C = assay: NCI 60 cell line panel (SRB), SN12C; conditions: Homo sapiens, Renal Cancer, single dose of 10 μM, read-out: Cell Growth Percent
UACC-62 = assay: NCI 60 cell line panel (SRB), UACC-62; conditions: Homo sapiens; UACC-62, Melanoma; single dose of 10 μM; read-out: Cell Growth Percent
CAKI-1 = assay: NCI 60 cell line panel (SRB), CAKI-1; conditions: Homo sapiens; CAKI-1, Renal Cancer; single dose of 10 μM; read-out: Cell Growth Percent
A549/ATCC = assay: NCI 60 cell line panel (SRB), A549/ATCC; conditions: Homo sapiens, Non-Small Cell Lung Cancer, single dose of 10 μM, read-out: Cell Growth Percent
KM12 = assay: NCI 60 cell line panel (SRB), KM12; conditions: Homo sapiens; KM12, Colon Cancer; single dose of 10 μM; read-out: Cell Growth Percent
K-562 = assay: NCI 60 cell line panel (SRB), K-562; conditions: Homo sapiens, K562; K-562, Leukemia; single dose of 10 μM; read-out: Cell Growth Percent
OVCAR-3 = assay: NCI 60 cell line panel (SRB), OVCAR-3; conditions: Homo sapiens; OVCAR-3, Ovarian Cancer; single dose of 10 μM; read-out: Cell Growth Percent
NCI-H226 = assay: NCI 60 cell line panel (SRB), NCI-H226; conditions: Homo sapiens; NCI-H226, Non-Small Cell Lung Cancer; single dose of 10 μM; read-out: Cell Growth Percent
SK-MEL-2 = assay: NCI 60 cell line panel (SRB), SK-MEL-2; conditions: Homo sapiens; SK-MEL-2, Melanoma; single dose of 10 μM; read-out: Cell Growth Percent
MDA-MB-435 = assay: NCI 60 cell line panel (SRB), MDA-MB-435; conditions: Homo sapiens; MDA-MB-435, Melanoma; single dose of 10 μM; read-out: Cell Growth Percent
NCI-H322M = assay: NCI 60 cell line panel (SRB), NCI-H322M; conditions: Homo sapiens, Non-Small Cell Lung Cancer, single dose of 10 μM, read-out: Cell Growth Percent
SNB-19 = assay: NCI 60 cell line panel (SRB), SNB-19; conditions: Homo sapiens; SNB-19, CNS Cancer; single dose of 10 μM; read-out: Cell Growth Percent
MCF7 = assay: NCI 60 cell line panel (SRB), MCF7; conditions: Homo sapiens; MCF7, Breast Cancer; single dose of 10 μM; read-out: Cell Growth Percent
HCT-116 = assay: NCI 60 cell line panel (SRB), HCT-116; conditions: Homo sapiens; HCT-116, Colon Cancer; single dose of 10 μM; read-out: Cell Growth Percent
IGROV1 = assay: NCI 60 cell line panel (SRB), IGROV1; conditions: Homo sapiens, IGROV-1; IGROV1, Ovarian Cancer; single dose of 10 μM; read-out: Cell Growth Percent
EKVX = assay: NCI 60 cell line panel (SRB), EKVX; conditions: Homo sapiens, Non-Small Cell Lung Cancer, single dose of 10 μM, read-out: Cell Growth Percent
NCI-H460 = assay: NCI 60 cell line panel (SRB), NCI-H460; conditions: Homo sapiens; NCI-H460, Non-Small Cell Lung Cancer; single dose of 10 μM; read-out: Cell Growth Percent
UO-31 = assay: NCI 60 cell line panel (SRB), UO-31; conditions: Homo sapiens; UO-31, Renal Cancer; single dose of 10 μM; read-out: Cell Growth Percent
SK-OV-3 = assay: NCI 60 cell line panel (SRB), SK-OV-3; conditions: Homo sapiens; SK-OV-3, Ovarian Cancer; single dose of 10 μM; read-out: Cell Growth Percent

| Structure (SMILES) | activity at 10 µM (OVCAR-4) | activity at 10 µM (NCI/ADR-RES) | activity at 10 µM (TK-10) | activity at 10 µM (OVCAR-8) | activity at 10 µM (MALME-3M) | activity at 10 µM (RPMI-8226) | activity at 10 µM (LOX IMVI) | activity at 10 µM (HT29) | activity at 10 µM (T-47D) | activity at 10 µM (M14) | activity at 10 µM (SF-295) | activity at 10 µM (MDA-MB-468) | activity at 10 µM (BT-549) | activity at 10 µM (786-0) | activity at 10 µM (SK-MEL-28) | activity at 10 µM (ACHN) | activity at 10 µM (SN12C) | activity at 10 µM (UACC-62) | activity at 10 µM (CAKI-1) | activity at 10 µM (A549/ATCC) | also measured |
| --- | --- | --- | --- | --- | --- | --- | --- | --- | --- | --- | --- | --- | --- | --- | --- | --- | --- | --- | --- | --- | --- |
| CCOC(=O)c1c(C)oc2ncnc(Nc3ccc(NC(=O)Nc4cccc(Cl)c4)cc3)c12 [Compound 15d] | 73.7% | 43.7% | 79.1% | 50.2% | 81.4% | 46.1% | 64.1% | 37.1% | 1.9% | 48.6% | 79.5% | 49.7% | 61.5% | 79.1% | 61.8% | 57.4% | 73.9% | 69.1% | 90.8% | 32.3% | activity at 10 µM (KM12): 61%; activity at 10 µM (K-562): 67.7%; activity at 10 µM (OVCAR-3): 80.8%; activity at 10 µM (NCI-H226): 54.8%; activity at 10 µM (SK-MEL-2): 72.7%; activity at 10 µM (MDA-MB-435): 65.8%; activity at 10 µM (NCI-H322M): 83.5%; activity at 10 µM (SNB-19): 84.6%; activity at 10 µM (MCF7): 43.3%; activity at 10 µM (HCT-116): 50.7%; activity at 10 µM (IGROV1): 78.4%; activity at 10 µM (EKVX): 72.3%; activity at 10 µM (NCI-H460): 67.1%; activity at 10 µM (UO-31): 50.3%; activity at 10 µM (SK-OV-3): 93.2% |
| CCOC(=O)c1c(C)oc2ncnc(Nc3ccc(NC(=O)Nc4ccc(CC)cc4)cc3)c12 [Compound 15i] | 105% | 97.2% | 112% | 112% | 101% | 95% | 100% | 103% | 78.2% | 99.9% | 109% | 128% | 84.4% | 99.8% | 105% | 98.8% | 107% | 108% | 98.3% | 89.2% | activity at 10 µM (KM12): 103%; activity at 10 µM (K-562): 98%; activity at 10 µM (OVCAR-3): 118%; activity at 10 µM (NCI-H226): 104%; activity at 10 µM (SK-MEL-2): 120%; activity at 10 µM (MDA-MB-435): 102%; activity at 10 µM (NCI-H322M): 102%; activity at 10 µM (SNB-19): 97.9%; activity at 10 µM (MCF7): 94.9%; activity at 10 µM (HCT-116): 78.7%; activity at 10 µM (IGROV1): 110%; activity at 10 µM (EKVX): 102%; activity at 10 µM (NCI-H460): 106%; activity at 10 µM (UO-31): 94.7%; activity at 10 µM (SK-OV-3): 88.2% |
| O=C(Nc1ccccc1)Nc1ccc(Nc2ncnc3sc4c(c23)CCCC4)cc1 [Compound 20a] | 107% | 107% | 124% | 107% | 102% | 99.2% | 99.4% | 96.1% | 100% | 103% | 102% | 96.8% | 109% | 110% | 116% | 101% | 99.2% | 97.8% | 100% | 73.8% | activity at 10 µM (KM12): 102%; activity at 10 µM (K-562): 99.7%; activity at 10 µM (OVCAR-3): 103%; activity at 10 µM (NCI-H226): 89.8%; activity at 10 µM (SK-MEL-2): 114%; activity at 10 µM (MDA-MB-435): 112%; activity at 10 µM (NCI-H322M): 106%; activity at 10 µM (SNB-19): 95.9%; activity at 10 µM (MCF7): 96.2%; activity at 10 µM (HCT-116): 114%; activity at 10 µM (IGROV1): 107%; activity at 10 µM (EKVX): 102%; activity at 10 µM (NCI-H460): 104%; activity at 10 µM (UO-31): 71.5%; activity at 10 µM (SK-OV-3): 99.5% |
| COc1cccc(NC(=O)Nc2ccc(Nc3ncnc4sc5c(c34)CCCC5)cc2)c1 [Compound 20c] | 88.8% | 106% | 129% | 113% | 79.9% | 102% | 94.4% | 104% | 66.4% | 89.8% | 99% | 114% | 85.8% | 100% | 93.3% | 92% | 91% | 106% | 97% | 78.3% | activity at 10 µM (KM12): 89.6%; activity at 10 µM (K-562): 97.2%; activity at 10 µM (OVCAR-3): 99.1%; activity at 10 µM (NCI-H226): 90.1%; activity at 10 µM (SK-MEL-2): 116%; activity at 10 µM (MDA-MB-435): 98.5%; activity at 10 µM (NCI-H322M): 98.8%; activity at 10 µM (SNB-19): 95.2%; activity at 10 µM (MCF7): 86.2%; activity at 10 µM (HCT-116): 91%; activity at 10 µM (IGROV1): 106%; activity at 10 µM (EKVX): 89.6%; activity at 10 µM (NCI-H460): 106%; activity at 10 µM (UO-31): 61%; activity at 10 µM (SK-OV-3): 88.4% |
| O=C(Nc1ccc(Nc2ncnc3sc4c(c23)CCCC4)cc1)Nc1cccc(Cl)c1 [Compound 20d] | 101% | 113% | 108% | 112% | 97.9% | 106% | 103% | 87.8% | 100% | 99.3% | 96.8% | 110% | 100% | 103% | 104% | 99.7% | 102% | 106% | 97.2% | 74.2% | activity at 10 µM (KM12): 105%; activity at 10 µM (K-562): 110%; activity at 10 µM (OVCAR-3): 110%; activity at 10 µM (NCI-H226): 103%; activity at 10 µM (SK-MEL-2): 116%; activity at 10 µM (MDA-MB-435): 104%; activity at 10 µM (NCI-H322M): 104%; activity at 10 µM (SNB-19): 108%; activity at 10 µM (MCF7): 91.9%; activity at 10 µM (HCT-116): 112%; activity at 10 µM (IGROV1): 113%; activity at 10 µM (EKVX): 96.9%; activity at 10 µM (NCI-H460): 110%; activity at 10 µM (UO-31): 90.9%; activity at 10 µM (SK-OV-3): 98.6% |
